Tests used:
Escherichia coli = assay: treatment of human subject with urinary tract infection, enteric coated oral tablets; assay type: in vivo; conditions: two enteric coated tablets (350 mg each) orally every 8 hours for 4 days
Source text: An enteric coated antimicrobial composition for oral administration, according to this invention, is made comprising the following core tablet:
The components are admixed into a bulk mixture. Compressed tablets are formed, using tabletting methods known in the art. The tablet is then coated with a suspension of methacrylic acid/methacrylic acid ester polymer in isopropanol/acetone. A human subject, having a urinary tract infection with Escherichia coli present, is orally administered two of the tablets, every 8 hours, for 4 days.

[1] = reported side effect; cited from earlier work
Streptococcus pneumoniae = conditions: human, lower respiratory tract infection with Streptococcus pneumoniae; 30 mg/mL suspension, approx. 2.0 mL intramuscular twice daily for approx. 14 days; after 4 days
Experimental: An antimicrobial composition for parenteral administration, according to this invention, is made comprising:
The above ingredients are mixed, forming a suspension. Approximately 2.0 mL of the suspension is systemically administered, via intramuscular injection, to a human subject suffering from a lower respiratory tract infection, with Streptococcus pneumoniae present. This dosage is repeated twice daily, for approximately 14 days.

Question: Which “symptoms of the disease / eradication of the pathogen” value (Escherichia coli) does the source give for “7-[7-amino-8R-methyl-5-azaspiro[2.5]-octanyl]-1-cyclopropyl-1,4-dihydro-6-fluoro-8-methoxy-4-oxo-3-quinolinecarboxylic acid hydrochloride [Example 5]” here?
Answer: Symptoms of the disease then subside

Question: For `COc1c(N2CCNC(C)C2)c(F)cc2c(=O)c(C(=O)O)cn(C3CC3)c12` (racemic) [gatifloxacin, (±)-1-cyclopropyl-6-fluoro-1,4-dihydro-8-methoxy-7-(3-methyl-1-piperazinyl)-4-oxo-3-quinoline carboxylic acid], which clastogenicity [1] is on record?
Answer: exhibit clastogenicity

Question: Which “symptoms of the disease / eradication of the pathogen” value (Streptococcus pneumoniae) does the source give for `CC[C@@H]1[C@H](N)CN(c2nc3c(cc2F)c(=O)c(C(=O)O)cn3C2CC2)C[C@@H]1C.Cl` [Example 12, 7-[3S-amino-4S-ethyl-5R-methyl-piperidinyl]-1-Cyclopropyl-1,4-dihydro-6-fluoro-4-oxo-1,8-naphthyridine-3-carboxylic acid hydrochloride] here?
Answer: symptoms of the disease subside
